Laboratory results: patent US9695155B2, “Herbicidal substituted pyrimidinyloxy benzene compounds” (E. I. DU PONT DE NEMOURS AND COMPANY, priority 2013, dated 2017)

What was measured:
oilseed rape = assay: Test C postemergence; type: in vivo, Brassica napus
In short: (§1)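 Visual injury score versus untreated controls, 0 = no effect, 100 = complete control, taken 13 to 15 days after treatment in the greenhouse. Pre-emergence pots held loam/sand; post-emergence plants grew in sphagnum peat/vermiculite mix and were sprayed at the 1- to 4-leaf stage.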

galium = assay: Test C postemergence; type: in vivo, Galium aparine
In short: as §1

large (Lg) crabgrass = assay: Test C postemergence; type: in vivo, Digitaria sanguinalis
In short: as §1

wild oat = assay: Test C postemergence; type: in vivo, Avena fatua
In short: as §1

giant foxtail = assay: Test A preemergence; type: in vivo, Setaria faberii; settings: for Foxtail, Giant plant response rating: 500 g ai/ha
In short: (§2)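 Visual injury scored 0–100 (100 = complete control) against untreated controls about 10 days after treatment in a greenhouse. Test chemicals, formulated with surfactant in non-phytotoxic solvent, were sprayed on soil preemergence or on 2-10 cm, one- to two-leaf plants postemergence.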

barnyardgrass [1] = assay: Test C postemergence; type: in vivo, Echinochloa crus-galli
In short: as §1

barnyardgrass [2] = assay: Test A preemergence; type: in vivo, Echinochloa crus-galli; settings: for Barnyardgrass plant response rating: 500 g ai/ha
In short: as §2

blackgrass = assay: Test C postemergence; type: in vivo, Alopecurus myosuroides
In short: as §1

lambsquarters = assay: Test C postemergence; type: in vivo, Chenopodium album
In short: as §1

johnsongrass = assay: Test C postemergence; type: in vivo, Sorghum halepense
In short: as §1

velvetleaf = assay: Test A postemergence; type: in vivo, Abutilon theophrasti; settings: 0 to 100 scale where 0 is no effect and 100 is complete control
In short: as §2

pigweed [3] = assay: Test A postemergence; type: in vivo, Amaranthus retroflexus; settings: 0 to 100 scale where 0 is no effect and 100 is complete control
In short: as §2

pigweed [4] = assay: Test A preemergence; type: in vivo, Amaranthus retroflexus; settings: for Pigweed plant response rating: 500 g ai/ha
In short: as §2

wheat = assay: Test A preemergence; type: in vivo, Triticum aestivum; settings: for Wheat plant response rating: 500 g ai/ha
In short: as §2

waterhemp = assay: Test C postemergence; type: in vivo, Amaranthus rudis
In short: as §1

[5] = Postemergence, 31 g ai/ha, scale 0 to 100 (0 no effect, 100 complete control), 13 to 15 days
[6] = Postemergence, 62 g ai/ha, scale 0 to 100 (0 no effect, 100 complete control)
[7] = 125 g ai/ha, 0 to 100 scale where 0 is no effect and 100 is complete control
[8] = 0 to 100 scale, 0 no effect, 100 complete control, approx. 10 days
[9] = 16 g ai/ha, postemergence, 0 is no effect, 100 is complete control
[10] = 31 g ai/ha, postemergence, visual rating, scale 0 to 100 (0 no effect, 100 complete control), 13 to 15 days
[11] = 125 g ai/ha, postemergence, visual rating, scale 0 to 100 (0 no effect, 100 complete control)
[12] = Postemergence, 62 g ai/ha, scale 0 to 100 (0 no effect, 100 complete control), 13 to 15 days
[13] = 0 to 100 scale where 0 is no effect and 100 is complete control

N#Cc1cccc(Oc2ncc(Cl)cn2)c1-n1cc(Cl)cn1 [Compound 72]
Plant response rating (0 to 100), Oilseed Rape (oilseed rape; 125 g ai/ha, postemergence): 70
Plant response rating (0 to 100), Oilseed Rape (oilseed rape; 250 g ai/ha, postemergence): 90
Plant response rating, Oilseed Rape (oilseed rape; [5]): 55
Plant response rating, Oilseed Rape (oilseed rape; [6]): 70
Plant response rating (0 to 100), Galium (galium; 125 g ai/ha, postemergence): 95
Plant response rating (0 to 100), Galium (galium; 250 g ai/ha, postemergence): 95
Plant response rating, Galium (galium; [5]): 75
Plant response rating, Galium (galium; [6]): 80
Plant response rating (0 to 100), Crabgrass, Large (large (Lg) crabgrass; 125 g ai/ha, postemergence): 55
Plant response rating (0 to 100), Crabgrass, Large (large (Lg) crabgrass; 250 g ai/ha, postemergence): 60
Plant response rating, Crabgrass, Large (large (Lg) crabgrass; [5]): 5
Plant response rating, Crabgrass, Large (large (Lg) crabgrass; [6]): 10
Plant response rating (0 to 100), Oat, Wild (wild oat; 125 g ai/ha, postemergence): 30
Plant response rating (0 to 100), Oat, Wild (wild oat; 250 g ai/ha, postemergence): 35
Plant response rating, Oat, Wild (wild oat; [5]): 5
Plant response rating, Oat, Wild (wild oat; [6]): 5
Plant response rating, Foxtail, Giant (giant foxtail; [7]): 100
Foxtail, Giant plant response rating (giant foxtail; [8]): 100
Plant response rating (0 to 100), Barnyardgrass (barnyardgrass [1]; 125 g ai/ha, postemergence): 10
Plant response rating (0 to 100), Barnyardgrass (barnyardgrass [1]; 250 g ai/ha, postemergence): 40
Plant response rating, Barnyardgrass (barnyardgrass [1]; [5]): 5
Plant response rating, Barnyardgrass (barnyardgrass [1]; [6]): 5
Plant response rating, Barnyardgrass (barnyardgrass [2]; [7]): 80
Barnyardgrass plant response rating (barnyardgrass [2]; [8]): 100
Plant response rating (0 to 100), Blackgrass (blackgrass; 125 g ai/ha, postemergence): 15
Plant response rating (0 to 100), Blackgrass (blackgrass; 250 g ai/ha, postemergence): 15
Plant response rating, Blackgrass (blackgrass; [5]): 10
Plant response rating, Blackgrass (blackgrass; [6]): 10
Plant response rating (0 to 100), Lambsquarters (lambsquarters; 125 g ai/ha, postemergence): 85
Plant response rating (0 to 100), Lambsquarters (lambsquarters; 250 g ai/ha, postemergence): 98
Plant response rating, Lambsquarters (lambsquarters; [5]): 75
Plant response rating, Lambsquarters (lambsquarters; [6]): 75
Plant response rating (0 to 100), Johnsongrass (johnsongrass; 125 g ai/ha, postemergence): 5
Plant response rating (0 to 100), Johnsongrass (johnsongrass; 250 g ai/ha, postemergence): 25
Plant response rating, Johnsongrass (johnsongrass; [5]): 0
Plant response rating, Johnsongrass (johnsongrass; [6]): 5
Plant response rating, Velvetleaf (velvetleaf; 125 g ai/ha): 100
Plant response rating, Velvetleaf (velvetleaf; 500 g ai/ha): 100
Plant response rating, Pigweed (pigweed [3]; 125 g ai/ha): 100
Plant response rating, Pigweed (pigweed [3]; 500 g ai/ha): 100
Plant response rating, Pigweed (pigweed [4]; [7]): 100
Pigweed plant response rating (pigweed [4]; [8]): 100
Plant response rating, Wheat (wheat; [7]): 20
Wheat plant response rating (wheat; [8]): 60
Plant response rating (0 to 100), Waterhemp (waterhemp; 125 g ai/ha, postemergence): 75
Plant response rating (0 to 100), Waterhemp (waterhemp; 250 g ai/ha, postemergence): 95
Plant response rating, Waterhemp (waterhemp; [5]): 75
Plant response rating, Waterhemp (waterhemp; [6]): 75

Clc1cnc(Oc2cccc(Br)c2-n2cc(Cl)cn2)nc1 [Compound 221]
Plant response rating (0 to 100), Oilseed Rape (oilseed rape; [9]): 40
Oilseed Rape plant response rating (oilseed rape; [10]): 50
Plant response rating, Oilseed Rape (oilseed rape; [11]): 80
Plant response rating, Oilseed Rape (oilseed rape; [12]): 60
Plant response rating (0 to 100), Galium (galium; [9]): 60
Galium plant response rating (galium; [10]): 55
Plant response rating, Galium (galium; [11]): 90
Plant response rating, Galium (galium; [12]): 55
Plant response rating (0 to 100), Crabgrass, Large (large (Lg) crabgrass; [9]): 5
Crabgrass, Large plant response rating (large (Lg) crabgrass; [10]): 5
Plant response rating, Crabgrass, Large (large (Lg) crabgrass; [11]): 25
Plant response rating, Crabgrass, Large (large (Lg) crabgrass; [12]): 5
Plant response rating (0 to 100), Oat, Wild (wild oat; [9]): 5
Oat, Wild plant response rating (wild oat; [10]): 5
Plant response rating, Oat, Wild (wild oat; [11]): 30
Plant response rating, Oat, Wild (wild oat; [12]): 10
Foxtail, Giant plant response rating (0 to 100 scale) (giant foxtail; 125 g ai/ha): 100
Foxtail, Giant plant response rating (giant foxtail; [13]): 100
Plant response rating (0 to 100), Barnyardgrass (barnyardgrass [1]; [9]): 5
Barnyardgrass plant response rating (barnyardgrass [1]; [10]): 5
Plant response rating, Barnyardgrass (barnyardgrass [1]; [11]): 10
Plant response rating, Barnyardgrass (barnyardgrass [1]; [6]): 5
Barnyardgrass plant response rating (0 to 100 scale, 0 is no effect, 100 is complete control) (barnyardgrass [2]; 125 g ai/ha): 10
Barnyardgrass plant response rating (barnyardgrass [2]; [13]): 90
Plant response rating (0 to 100), Blackgrass (blackgrass; [9]): 0
Blackgrass plant response rating (blackgrass; [10]): 0
Plant response rating, Blackgrass (blackgrass; [11]): 5
Plant response rating, Blackgrass (blackgrass; [12]): 5
Plant response rating (0 to 100), Lambsquarters (lambsquarters; [9]): 15
Lambsquarters plant response rating (lambsquarters; [10]): 60
Plant response rating, Lambsquarters (lambsquarters; [11]): 65
Plant response rating, Lambsquarters (lambsquarters; [12]): 50
Plant response rating (0 to 100), Johnsongrass (johnsongrass; [9]): 5
Johnsongrass plant response rating (johnsongrass; [10]): 5
Plant response rating, Johnsongrass (johnsongrass; [11]): 20
Plant response rating, Johnsongrass (johnsongrass; [12]): 5
Velvetleaf plant response rating (velvetleaf; 125 g ai/ha): 100
Plant response rating, Velvetleaf (velvetleaf; 500 g ai/ha): 100
Pigweed plant response rating (pigweed [3]; 125 g ai/ha): 100
Plant response rating, Pigweed (pigweed [3]; 500 g ai/ha): 100
Pigweed plant response rating (0 to 100 scale) (pigweed [4]; 125 g ai/ha): 100
Pigweed plant response rating (pigweed [4]; [13]): 100
Wheat plant response rating (0 to 100 scale) (wheat; 125 g ai/ha): 0
Wheat plant response rating (wheat; [13]): 10
Plant response rating (0 to 100), Waterhemp (waterhemp; [9]): 65
Waterhemp plant response rating (waterhemp; [10]): 70
Plant response rating, Waterhemp (waterhemp; [11]): 80
Plant response rating, Waterhemp (waterhemp; [12]): 80
